As usually defined, the IC50 is the concentration that inhibits the measured activity by half. By CC50 is commonly meant the concentration that lowers cell viability or growth by half. By melting point is commonly meant the temperature of the solid-liquid transition.

The text below walks through data of paper PMC10892497, “Discovery of Pyrano[2,3-c]pyrazole Derivatives as Novel Potential Human Coronavirus Inhibitors: Design, Synthesis, In Silico, In Vitro, and ADME Studies” (Pharmaceuticals, 2024).

Like-named read-outs stand apart in the source and are kept apart here. Some results are limits rather than exact numbers.

In series [1] the test system is HCoV-229E. Kind of series: Cytopathic inhibition assay (crystal violet). Conditions: for antiviral activity against HCoV-229E (in words): Vero-E6; for IC50: cytopathic inhibition assay. In general terms: Protection from cytopathic effect is a common read-out in antiviral testing.
Series [2] is described as follows: MTT assay for cellular toxicity. Conditions: African green monkey.
Series [3] concerns the target T1, SARS-CoV2 protease enzyme (3CL protease, M^pro) (Severe acute respiratory syndrome coronavirus 2, UniProt P0DTD1).
T1 construct: provided with 30 µL of diluted 3CL Protease enzyme solution (M^pro); purchased BPS Bioscience, San Diego, CA, USA #79955-1
The series can be described thus: Protease (SARS-CoV2) inhibition test, 3CL Protease Test Kit. It counts as biochemical.

For series [4], the system named is HCoV-229E. The series can be described thus: Mode of action using plaque assay (virucidal, adsorption, replication). The note with it: replication mechanism. The series is classed as cell-based, human coronavirus 229E.
Setting [5] is: Human coronavirus 229E, Vero C1008, HCoV-229E in Vero-E6 cells.
[6] abbreviates: Vero-E6 cells infected with HCoV-229E.

`Cc1n[nH]c2c1C(c1cccs1)c1c(N)ncnc1O2` (stereo not drawn) [Compound 2]: in the series on HCoV-229E [1], the selectivity ratio turned out to be 2.4 and the “antiviral activity against HCoV-229E (in words)” value (shortened to “antiviral activity”) is “minimal antiviral activity”. In the series with HCoV-229E [1] (setting [5]), this compound showed an IC50 of 309 µM. For the same compound, in series [2], the CC50 at 48 h stood at 749 µM.

In the case of `Cc1n[nH]c2c1C(c1cccs1)C(C#N)=C(/N=C/c1nncn1C)O2` (stereo not drawn) [Compound 4], in the series on HCoV-229E [1], the selectivity ratio turned out to be 0.9 and the “antiviral activity” value is “did not”. In addition, in the series with HCoV-229E [1] (HCoV-229E in Vero-E6 cells), the concentration for half-maximal inhibition (IC50) worked out at 70.1 µM. Also, in the series with HCoV-229E [1] (setting [5]), 78.1 µM corresponded to half-maximal inhibition (IC50). For the same compound, the CC50 at 48 h in series [2] came out at 67.5 µM.

As to `Cc1n[nH]c2c1C(c1cccs1)C(C#N)=C(N1C(=O)CSC1c1nncn1C)O2` (stereo not drawn) [Compound 5], in the series with HCoV-229E [1], the selectivity ratio is 1.86 and the “antiviral activity” value is “minimal antiviral activity”. The same compound displayed an IC50 with HCoV-229E [1] (setting [5]) of 51.2 µM. In series [2], this compound returned a CC50 at 48 h of 95.4 µM.

Consider `Cc1n[nH]c2c1C(c1cccs1)C(C#N)=C(N1C(=O)C(Cl)C1c1nncn1C)O2` (stereo not drawn) [Compound 6], for which the concentration for half-maximal inhibition (IC50) in the series on HCoV-229E [1] (HCoV-229E in Vero-E6 cells) is 89.4 µM; in the series on HCoV-229E [1] (setting [5]) it was 65.6 µM; in series [3], 105 µM. In addition, in the series with HCoV-229E [1], the “antiviral activity” value is “moderate efficacies”. For the same compound, in the series with HCoV-229E [1] (setting [6]), the selectivity ratio was 7.6. In series [2], this compound displayed a CC50 at 48 h of 585 µM. The “reduction percentage, replication phase” value in the series on HCoV-229E [4] is recorded as 53.6%.

As to `COP(=O)(OC)C1(c2csnn2)NC2=C(C1=O)C(c1cccs1)c1c(C)n[nH]c1O2` (stereo not drawn) [Compound 7, dimethyl(3-methyl-5-oxo-6-(1,2,3-thiadiazol-4-yl)-4-(thiophen-2-yl)-4,5,6,7-tetrahydro-1H-pyrrolo[3′,2′:5,6]pyrano[2,3-c]pyrazol-6-yl)phosphonate], in the series on HCoV-229E [1], the selectivity ratio turned out to be 4.3. The half-inhibitory concentration (IC50) is 25.8 µM with HCoV-229E [1] (HCoV-229E in Vero-E6 cells), 35.8 µM in the series with HCoV-229E [1] (setting [5]) and 772 µM in series [3]. In addition, in the series on HCoV-229E [1], the “antiviral activity” value is “moderate efficacies”. Also, the CC50 at 48 h in series [2] is 190 µM. For the same compound, the “reduction percentage, replication phase” value in the series on HCoV-229E [4] is 60.7%.

Turning to `Cc1n[nH]c2c1C(c1cccs1)C1=C(NC(c3csnn3)c3c(C(F)(F)F)nn(C)c3OC1=N)O2` (stereo not drawn) [Compound 8], in the series on HCoV-229E [1], the selectivity ratio amounted to 0.6 and the “antiviral activity” value is reported as “did not”. The same compound showed an IC50 with HCoV-229E [1] (HCoV-229E in Vero-E6 cells) of 69.1 µM. The same compound displayed a half-inhibitory concentration (IC50) in the series on HCoV-229E [1] (setting [5]) of 86.2 µM. Moreover, the CC50 at 48 h in series [2] was found to be 45.3 µM.

Consider `CCO/C=N/C1=C(C#N)C(c2cccs2)c2c(C)n[nH]c2O1` (stereo not drawn) [Compound 9], for which, in the series on HCoV-229E [1], the selectivity ratio came out at 2.3 and the “antiviral activity” value is on record as “minimal antiviral activity”. In the series on HCoV-229E [1] (HCoV-229E in Vero-E6 cells), this compound showed an IC50 of 134 µM. This compound returned an IC50 with HCoV-229E [1] (setting [5]) of 134 µM. Moreover, the CC50 at 48 h in series [2] amounted to 365 µM.

Turning to `Cc1n[nH]c2c1C(c1cccs1)c1c(ncn(N)c1=N)O2` (stereo not drawn) [Compound 10], in the series with HCoV-229E [1], the selectivity ratio was 1.3 and the “antiviral activity” value is on record as “minimal antiviral activity”. The compound further registered a 50% cytotoxic concentration (CC50) at 48 h in series [2] of 25.4 µM.

For `Cc1n[nH]c2c1C(c1cccs1)c1c(ncn3[nH]c(=S)nc13)O2` (stereo not drawn) [Compound 11], in the series on HCoV-229E [1], the selectivity ratio is 1.7 and the “antiviral activity” value is “minimal antiviral activity”. The IC50 in the series on HCoV-229E [1] (HCoV-229E in Vero-E6 cells) is 10.9 µM. Further, inhibition with HCoV-229E [1] (setting [5]) was half-maximal at 16 µM (IC50). In addition, the midpoint of cytotoxicity in series [2], the CC50 at 48 h, lay at 19.7 µM.

Take `Cc1n[nH]c2c1C(c1cccs1)c1c(ncn3ncnc13)O2` (stereo not drawn) [Compound 12]: in the series on HCoV-229E [1], the selectivity ratio came out at 3.5 and the “antiviral activity” value is given as “minimal antiviral activity”. Also, the IC50 in the series on HCoV-229E [1] (setting [5]) came to 18.6 µM. The compound further gave a CC50 at 48 h in series [2] of 66.6 µM.

Consider `Cc1n[nH]c2c1C(c1cccs1)c1c(ncn3nc(-c4nc[nH]n4)nc13)O2` (stereo not drawn) [Compound 13], for which, in the series with HCoV-229E [1], the selectivity ratio is 0.46 and the “antiviral activity” value is recorded as “did not”. 88.8 µM corresponded to half-maximal inhibition with HCoV-229E [1] (HCoV-229E in Vero-E6 cells) (IC50). The compound also yielded an IC50 with HCoV-229E [1] (setting [5]) of 88.8 µM. Further, the midpoint of cytotoxicity in series [2], the CC50 at 48 h, lay at 49.8 µM.

As for `Cc1n[nH]c2c1C(c1cccs1)C(C#N)=C(/N=C/[C@H](O)[C@@H](O)[C@H](O)CO)O2` (stereo partly drawn) [Compound 14], the “antiviral activity” value in the series with HCoV-229E [1] is “moderate efficacies”. Besides, the IC50 was 78.7 µM with HCoV-229E [1] (setting [5]) and 180 µM in series [3]. The selectivity ratio in the series with HCoV-229E [1] (setting [6]) worked out at 6.5. In series [2], the half-maximal cytotoxic concentration (CC50) at 48 h is 507 µM. In addition, in the series on HCoV-229E [4], the “reduction percentage, replication phase” value was determined as 55%.

`Cc1n[nH]c2c1C(c1cccs1)C(C#N)=C(/N=C/[C@@H](O)[C@H](O)[C@H](O)CO)O2` (stereo partly drawn) [Compound 15] gave a melting point above 300 °C. In the series on HCoV-229E [1], the selectivity ratio was 1.18 and the “antiviral activity” value is reported as “minimal antiviral activity”. The same compound displayed an IC50 in the series on HCoV-229E [1] (HCoV-229E in Vero-E6 cells) of 123 µM. The compound further registered an IC50 in the series with HCoV-229E [1] (setting [5]) of 123 µM. The same compound returned a CC50 at 48 h in series [2] of 146 µM.

As for `Cc1n[nH]c2c1C(c1cccs1)C(C#N)=C(/N=C/[C@@H](O)[C@@H](O)[C@H](O)[C@H](O)CO)O2` (stereo partly drawn) [Compound 17], the melting point was above 300 °C. In addition, in the series on HCoV-229E [1], the selectivity ratio turned out to be 1.7 and the “antiviral activity” value is “minimal antiviral activity”. This compound displayed an IC50 with HCoV-229E [1] (setting [5]) of 95.4 µM. The same compound registered a CC50 at 48 h in series [2] of 183 µM.

`Cc1n[nH]c2c1C(c1cccs1)C(C#N)=C(/N=C/[C@H](O)[C@@H](O)[C@@H](O)[C@H](O)CO)O2` (stereo partly drawn) [Compound 18] had a melting point above 300 °C. In the series with HCoV-229E [1] (setting [5]), this compound had an IC50 of 44.9 µM. Moreover, the selectivity ratio with HCoV-229E [1] (setting [6]) came to 12.6. In series [3], this compound had an IC50 of 66.1 µM. For the same compound, in series [2], half-maximal cytotoxicity (CC50 at 48 h) was put at 567 µM. Moreover, in the series with HCoV-229E [4], the “reduction percentage, replication phase” value was found to be 82.2%.

On to `CCC[C@@]1(CCc2ccccc2)CC(O)=C([C@H](CC)c2cccc(NS(=O)(=O)c3ccc(C(F)(F)F)cn3)c2)C(=O)O1` [tipranavir, reference compound], for which, in series [3], inhibition was half-maximal at 22.1 µM (IC50).
